Assays:
[1] = tested on: panel of 55 breast cancer cell lines; test: Cell growth inhibition assay (Cell Titer Glo, 72 h, 9 doses; GI50, TGI, LC50); format: cell-based, human; details: value is the negative log10 of mol/L
[2] = tested on: luminal, basal, claudin-low and ERBB2AMP breast cancer cell lines; test: Associations of clinically relevant subtypes and response (non-parametric ANOVA or t-test on GI50 ranks); format: cell-based, human; details: Table 6; most sensitive subtype, FDR p<0.20
In short: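 Significance was set at FDR p<0.20 after combining p-values across three test sets. Subtype–response associations came from rank-based non-parametric ANOVA or t-tests on GI50. For three-class comparisons, post-hoc tests of each group against the rest identified the most sensitive group, with FDR correction.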

**Q.** For `C=CCNC1=C2C[C@@H](C)C[C@H](OC)[C@H](O)[C@@H](C)/C=C(\C)[C@H](OC(N)=O)[C@@H](OC)/C=C\C=C(/C)C(=O)NC(=CC1=O)C2=O` [17-AAG], which GI50 ([1]; 600MPE cell line, censored GI50 values) is on record?
**A.** The GI50 was 6.87.

**Q.** And the GI50 ([1]; AU565 cell line, censored GI50 values)?
**A.** Its GI50 is 7.25.

**Q.** And the GI50 ([1]; BT474 cell line, censored GI50 values)?
**A.** The GI50 was 7.69.

**Q.** And the GI50 ([1]; BT483 cell line, censored GI50 values)?
**A.** The GI50 was 6.65.

**Q.** What about the GI50 ([1]; BT549 cell line, censored GI50 values) of the same molecule?
**A.** Its GI50 is 7.47.

**Q.** And the GI50 ([1]; CAMA1 cell line, censored GI50 values)?
**A.** The GI50 was 6.57.

**Q.** What about the GI50 ([1]; HCC38 cell line, censored GI50 values) of the same molecule?
**A.** Its GI50 is 7.23.

**Q.** What about the GI50 ([1]; HCC70 cell line, censored GI50 values) of the same molecule?
**A.** Its GI50 is 6.62.

**Q.** What about the GI50 ([1]; HCC202 cell line, censored GI50 values) of the same molecule?
**A.** The GI50 was 8.39.

**Q.** What about the GI50 ([1]; HCC1143 cell line, censored GI50 values) of the same molecule?
**A.** Its GI50 is 6.86.

**Q.** What about the GI50 ([1]; HCC1187 cell line, censored GI50 values) of the same molecule?
**A.** The GI50 was 5.29.

**Q.** What about the GI50 ([1]; HCC1395 cell line, censored GI50 values) of the same molecule?
**A.** Its GI50 is 6.54.

**Q.** And the GI50 ([1]; HCC1419 cell line, censored GI50 values)?
**A.** Its GI50 is 7.35.

**Q.** And the GI50 ([1]; HCC1428 cell line, censored GI50 values)?
**A.** The GI50 was 7.70.

**Q.** What about the GI50 ([1]; HCC1500 cell line, censored GI50 values) of the same molecule?
**A.** The GI50 was 6.91.

**Q.** What about the GI50 ([1]; HCC1806 cell line, censored GI50 values) of the same molecule?
**A.** Its GI50 is 7.04.

**Q.** What about the GI50 ([1]; HCC1937 cell line, censored GI50 values) of the same molecule?
**A.** The GI50 was 6.87.

**Q.** What about the GI50 ([1]; HCC1954 cell line, censored GI50 values) of the same molecule?
**A.** Its GI50 is 7.49.

**Q.** What about the GI50 ([1]; HCC2185 cell line, censored GI50 values) of the same molecule?
**A.** The GI50 was 6.93.

**Q.** And the GI50 ([1]; HCC3153 cell line, censored GI50 values)?
**A.** Its GI50 is 6.81.

**Q.** What about the GI50 ([1]; LY2 cell line, censored GI50 values) of the same molecule?
**A.** The GI50 was 6.97.

**Q.** What about the GI50 ([1]; MCF7 cell line, censored GI50 values) of the same molecule?
**A.** The GI50 was 6.25.

**Q.** What about the GI50 ([1]; MDAMB134VI cell line, censored GI50 values) of the same molecule?
**A.** The GI50 was 7.46.

**Q.** And the GI50 ([1]; MDAMB175VII cell line, censored GI50 values)?
**A.** The GI50 was 7.54.

**Q.** What about the GI50 ([1]; MDAMB231 cell line, censored GI50 values) of the same molecule?
**A.** The GI50 was 6.11.

**Q.** And the GI50 ([1]; MDAMB361 cell line, censored GI50 values)?
**A.** The GI50 was 7.24.

**Q.** And the GI50 ([1]; MDAMB415 cell line, censored GI50 values)?
**A.** The GI50 was 7.30.

**Q.** What about the GI50 ([1]; MDAMB436 cell line, censored GI50 values) of the same molecule?
**A.** The GI50 was 5.96.

**Q.** What about the GI50 ([1]; MDAMB453 cell line, censored GI50 values) of the same molecule?
**A.** The GI50 was 7.14.

**Q.** What about the GI50 ([1]; MDAMB468 cell line, censored GI50 values) of the same molecule?
**A.** The GI50 was 5.62.

**Q.** And the GI50 ([1]; SKBR3 cell line, censored GI50 values)?
**A.** Its GI50 is 7.50.

**Q.** What about the GI50 ([1]; SUM44PE cell line, censored GI50 values) of the same molecule?
**A.** Its GI50 is 8.84.

**Q.** What about the GI50 ([1]; SUM52PE cell line, censored GI50 values) of the same molecule?
**A.** Its GI50 is 7.46.

**Q.** And the GI50 ([1]; SUM149PT cell line, censored GI50 values)?
**A.** The GI50 was 7.00.

**Q.** What about the GI50 ([1]; SUM159PT cell line, censored GI50 values) of the same molecule?
**A.** Its GI50 is 7.46.

**Q.** And the GI50 ([1]; SUM185PE cell line, censored GI50 values)?
**A.** Its GI50 is 7.46.

**Q.** What about the GI50 ([1]; SUM1315MO2 cell line, censored GI50 values) of the same molecule?
**A.** Its GI50 is 7.66.

**Q.** And the GI50 ([1]; UACC893 cell line, censored GI50 values)?
**A.** Its GI50 is 7.90.

**Q.** What about the GI50 ([1]; ZR75B cell line, censored GI50 values) of the same molecule?
**A.** Its GI50 is 7.14.

**Q.** What about the GI50 ([1]; ZR751 cell line, censored GI50 values) of the same molecule?
**A.** Its GI50 is 6.56.

**Q.** And the GI50 ([1]; cell line 600MPE)?
**A.** Its GI50 is 6.87.

**Q.** And the GI50 ([1]; cell line AU565)?
**A.** Its GI50 is 7.25.

**Q.** And the GI50 ([1]; cell line BT474)?
**A.** Its GI50 is 7.69.

**Q.** What about the GI50 ([1]; cell line BT483) of the same molecule?
**A.** The GI50 was 6.65.

**Q.** What about the GI50 ([1]; cell line BT549) of the same molecule?
**A.** Its GI50 is 7.47.

**Q.** And the GI50 ([1]; cell line CAMA1)?
**A.** The GI50 was 6.57.

**Q.** And the GI50 ([1]; cell line HCC38)?
**A.** Its GI50 is 7.23.

**Q.** What about the GI50 ([1]; cell line HCC70) of the same molecule?
**A.** Its GI50 is 6.62.

**Q.** What about the GI50 ([1]; cell line HCC202) of the same molecule?
**A.** Its GI50 is 8.39.

**Q.** What about the GI50 ([1]; cell line HCC1143) of the same molecule?
**A.** The GI50 was 6.86.

**Q.** What about the GI50 ([1]; cell line HCC1187) of the same molecule?
**A.** The GI50 was 5.29.

**Q.** What about the GI50 ([1]; cell line HCC1395) of the same molecule?
**A.** The GI50 was 6.54.

**Q.** What about the GI50 ([1]; cell line HCC1419) of the same molecule?
**A.** The GI50 was 7.35.

**Q.** What about the GI50 ([1]; cell line HCC1428) of the same molecule?
**A.** Its GI50 is 7.70.

**Q.** And the GI50 ([1]; cell line HCC1500)?
**A.** The GI50 was 6.91.

**Q.** And the GI50 ([1]; cell line HCC1806)?
**A.** Its GI50 is 7.04.

**Q.** And the GI50 ([1]; cell line HCC1937)?
**A.** The GI50 was 6.87.

**Q.** And the GI50 ([1]; cell line HCC1954)?
**A.** Its GI50 is 7.49.

**Q.** And the GI50 ([1]; cell line HCC2185)?
**A.** Its GI50 is 6.93.

**Q.** And the GI50 ([1]; cell line HCC3153)?
**A.** The GI50 was 6.81.

**Q.** What about the GI50 ([1]; cell line LY2) of the same molecule?
**A.** The GI50 was 6.97.

**Q.** And the GI50 ([1]; cell line MCF7)?
**A.** The GI50 was 6.25.

**Q.** What about the GI50 ([1]; cell line MDAMB134V) of the same molecule?
**A.** The GI50 was 7.46.

**Q.** And the GI50 ([1]; cell line MDAMB175V)?
**A.** Its GI50 is 7.54.

**Q.** And the GI50 ([1]; cell line MDAMB231)?
**A.** The GI50 was 6.11.

**Q.** And the GI50 ([1]; cell line MDAMB361)?
**A.** The GI50 was 7.24.

**Q.** What about the GI50 ([1]; cell line MDAMB415) of the same molecule?
**A.** Its GI50 is 7.30.

**Q.** And the GI50 ([1]; cell line MDAMB436)?
**A.** The GI50 was 5.96.

**Q.** And the GI50 ([1]; cell line MDAMB453)?
**A.** The GI50 was 7.14.

**Q.** And the GI50 ([1]; cell line MDAMB468)?
**A.** Its GI50 is 5.62.

**Q.** And the GI50 ([1]; cell line SKBR3)?
**A.** The GI50 was 7.50.

**Q.** What about the GI50 ([1]; cell line SUM44PE) of the same molecule?
**A.** Its GI50 is 8.84.

**Q.** And the GI50 ([1]; cell line SUM52PE)?
**A.** Its GI50 is 7.46.

**Q.** What about the GI50 ([1]; cell line SUM149PT) of the same molecule?
**A.** The GI50 was 7.00.

**Q.** And the GI50 ([1]; cell line SUM159PT)?
**A.** Its GI50 is 7.46.

**Q.** And the GI50 ([1]; cell line SUM185PE)?
**A.** The GI50 was 7.46.

**Q.** What about the GI50 ([1]; cell line SUM1315MO) of the same molecule?
**A.** The GI50 was 7.66.

**Q.** What about the GI50 ([1]; cell line UACC893) of the same molecule?
**A.** The GI50 was 7.90.

**Q.** And the GI50 ([1]; cell line ZR75B)?
**A.** Its GI50 is 7.14.

**Q.** And the GI50 ([1]; cell line ZR751)?
**A.** The GI50 was 6.56.

**Q.** What about the Subtype specificity [2] of the same molecule?
**A.** The Subtype specificity was “Luminal/ERBB2AMP”.

From patent publication US10770169B2, “Method of providing a treatment to a subject based on a dynamic pathway map” (THE REGENTS OF THE UNIVERSITY OF CALIFORNIA, priority 2010, dated 2020)
